Assay results taken from patent US9371527B2, “Compositions and methods related to protein displacement therapy for myotonic distrophy” (University of Rochester, priority 2006, dated 2016).
Entries after “also recorded” stand apart in the source; their conditions may differ.

What was measured:
[1] = system: ClC-1 exon 7a; assay: RT-PCR of ClC-1 exon 7a splicing after ClC-1 antisense morpholino, HSA^LR mice; type: in vivo; conditions: TA muscle; for comparison of exon 7a skipping between antisense morpholinos: 3 weeks, 20 μg total
Protocol: FIGS. 21A, 21B, 21C, and 21D show the effects of antisense morpholino targeting the 3′ splice junction of ClC-1 exon 7a on splicing and myotonia in HSA^LR transgenic mice. Antisense morpholino targeting the 3′ splice junction of ClC-1 exon 7a was injected into tibialis anterior muscle of HSA^LR mice under general anesthesia (sequence 5′-[…]-3′ (SEQ ID NO: 4)). The contralateral muscle was injected with morpholino having the inverted sequence (5′-[…]-3′(SEQ ID NO: 5)). Uptake into muscle fibers was enhanced by in vivo electroporation. The determination of which side received the antisense morpholino was randomized. 21 days later, myotonia was evaluated by electromyography and muscle was harvested for RT-PCR analysis of ClC-1 alternative splicing. Electromyography was blinded to the randomization.
(§1) HSA^LR (Mankodi, A., et al. (2000) Science 289:1769-1773) or Mbnl1^ΔE3/ΔE3 mice (Kanadia, R. N., et al. (2003) Science 302:1978-1980) were anesthetized by intraperitoneal injection of 100 mg/kg ketamine, 10 mg/kg xylazine, and 3 mg/kg acepromazine. TA muscle was pretreated by intramuscular injection of bovine hyaluronidase (15 μl, 0.4 U/μl) (Sigma) (McMahon, J. M., et al. (2001) Gene Ther 8:1264-1270). Two hours later, 10 or 20 μg of morpholino in a total volume of 20 μl phosphate buffered saline (PBS) was injected using a 30-gauge needle. TA muscle was then electroporated using electrodes placed parallel to the long axis of the muscle. Electroporation parameters were 100 V/cm, 10 pulses at 1 Hz, and 20 ms duration per pulse. Antisense or control morpholino with inverted sequence was injected into TA muscles of opposite limbs. The determination of which TA received antisense morpholino was randomized, and investigators remained blinded to this assignment until EMG analyses were completed. Other analyses were performed without blinding. For experiments to determine the distribution of injected oligos, the antisense morpholino was labeled with carboxyfluorescein and cryosections of muscle (10 μM) were examined by fluorescence microscopy, with or without fixation in 4% paraformaldehyde. Some sections were co-labeled with TRITC-wheat germ agglutinin (Parsons, S. A., et al. (2003) Mol Cell Biol 23:4331-4343) (50 μg/ml in PBS; Sigma) and 4′,6-diamidino-2-phenylindole (DAPI) to highlight the surface membranes and nuclei of muscle fibers.
Mice were sacrificed three or eight weeks after morpholino injection. TA muscles were removed and frozen in liquid nitrogen. Total RNA was isolated with TriReagent (Molecular Research Center). cDNA synthesis was primed with oligo dT as described previously (Mankodi, A., et al. (2002) Mol Cell 10:35-44). Assays for alternative splicing of ClC-1 and Titin were described previously (Mankodi, A., et al. (2002) Mol Cell 10:35-44; Lin, X., et al. (2006) Hum Mol Genet 15:2087-2097). Primer sequences were
RT-PCR products (22 cycles) were separated on agarose gels, stained with SYBR green II, and scanned on a laser fluorimager (Molecular Dynamics). Band intensity was quantified using ImageQuant software. Total levels of ClC-1 mRNA were determined by quantitative real-time RT-PCR (Taqman, Applied Biosystems) relative to housekeeping gene RNA polymerase II transcription factor IIB.

[2] = system: nuclear foci containing CUG^exp RNA and MBNL1 protein; assay: FISH and immunofluorescence of ribonuclear inclusions after ClC-1 antisense morpholino; type: in vivo, HSA^LR mice; conditions: TA muscle, 3 weeks after injection; listed as antisense morpholino
[3] = system: ClC-1 exon 7a; assay: RT-PCR of ClC-1 exon 7a splicing after antisense morpholino, Mbnl1^ΔE3/ΔE3 mice; type: in vivo; conditions: TA muscle, 3 weeks, 20 μg
Protocol: FIGS. 27A, 27B, 27C, 27D, and 27E show antisense morpholino represses exon 7a inclusion, restores ClC-1 protein expression, and rescues myotonia in Mbnl1^ΔE3/ΔE3 mice. […] Bar=20 μM. […] Mean±s.d.; n=3 per group; **P<0.0001 antisense- versus invert-treated control; ANOVA.
To examine the effects of AON in this model, antisense morpholino or invert control was injected into TA muscle of Mbnl1^ΔE3/ΔE3 mice.
HSA^LR (Mankodi, A., et al. (2000) Science 289:1769-1773) or Mbnl1^ΔE3/ΔE3 mice (Kanadia, R. N., et al. (2003) Science 302:1978-1980) were anesthetized by intraperitoneal injection of 100 mg/kg ketamine, 10 mg/kg xylazine, and 3 mg/kg acepromazine. TA muscle was pretreated by intramuscular injection of bovine hyaluronidase (15 μl, 0.4 U/μl) (Sigma) (McMahon, J. M., et al. (2001) Gene Ther 8:1264-1270). Two hours later, 10 or 20 μg of morpholino in a total volume of 20 μl phosphate buffered saline (PBS) was injected using a 30-gauge needle. TA muscle was then electroporated using electrodes placed parallel to the long axis of the muscle. Electroporation parameters were 100 V/cm, 10 pulses at 1 Hz, and 20 ms duration per pulse. […] For experiments to determine the distribution of injected oligos, the antisense morpholino was labeled with carboxyfluorescein and cryosections of muscle (10 μM) were examined by fluorescence microscopy, with or without fixation in 4% paraformaldehyde. […]

[4] = Tissue uptake and distribution of carboxyfluorescein-labeled antisense morpholino; type: in vivo, HSA^LR mice; conditions: for subcellular localization of antisense morpholino: muscle fibers, TA 3 weeks / FDB day 5
Protocol: Antisense morpholino targeting the 3′ splice junction of ClC-1 exon 7a was injected into foot pad muscle of HSA^LR mice under general anesthesia. Uptake into muscle fibers was enhanced by in vivo electroporation. The morpholino was tagged with fluorescein. 4 days later, individual FDB muscle fibers were isolated. […] As a control, the opposite footpad was injected with morpholino having the inverted sequence. […] The peak current density in HSA^LR mice (center panel) is much lower than in wild-type mice (left panel). However, after morpholino treatment in HSA^LR mice (right panel), the current density is restored to levels that are similar to wild-type mice. […] The antisense morpholino (closed squares) restores chloride current density to normal levels (open circles or triangles).
The morpholino was complementary to the 3′ splice site of ClC-1 pre-mRNA. Muscle fibers are outlined by wheat germ agglutinin (wga) and nuclei are highlighted by DAPI. FIGS. 24D and 24 E show brightfield (D) and fluorescence (E) images of a single FDB fiber showing preferential nuclear localization of the antisense morpholino (post injection day 5). […] Bars=20 μM.
The strategy for suppressing the inclusion of exon 7a is diagrammed in FIG. 23A. The morpholino AONs were complementary to the 3′ or 5′ splice sites of exon 7a in the ClC-1 pre-mRNA (FIG. 23B). To examine tissue uptake, a carboxyfluorescein-labeled morpholino was injected into tibialis anterior (TA) muscle of HSA^LR mice. […] To improve uptake and distribution of AON, voltage pulses were used to electroporate muscle fibers after the AON injection.
as §1

Substance | ClC-1 exon 7a inclusion ([1]; 3 weeks (21 days) after single injection + electroporation) | formation of ribonuclear inclusions (CUG^exp RNA and MBNL1 foci) [2] | ClC-1 exon 7a inclusion ([1]; 3 weeks (21 days) after single injection + electroporation, listed as antisense morpholino) | comparison of exon 7a skipping between antisense morpholinos [1] | comparison of exon 7a skipping between antisense morpholinos ([1]; listed as AON targeting the 3′ splice site) | ClC-1 exon 7a inclusion ([1]; 8 weeks after injection, 20 μg) | ClC-1 exon 7a inclusion ([1]; 8 weeks after injection, 20 μg, listed as antisense morpholino) | fraction of splice products encoding functional ClC-1 channels (band 1) ([1]; 21 days) | ClC-1 exon 7a inclusion ([3]; listed as antisense morpholino) | ClC-1 exon 7a inclusion ([3]; listed as antisense morpholino 1) | fibers showing fluorescein uptake ([4]; FDB fibers, 4 days after foot pad injection + electroporation) | tissue uptake of antisense morpholino ([4]; TA injection followed by electroporation) | tissue uptake of antisense morpholino ([4]; TA injection without electroporation) | subcellular localization of antisense morpholino ([4]; listed as AON) | subcellular localization of antisense morpholino ([4]; listed as antisense morpholino)
control morpholino: control morpholino 5′-GAAGAGACAACGTCTGGCACGGACC-3′, the 5′-3′ invert of the 3′ splice site blocker (all phosphorodiamidate morpholino (PMO)) [reference compound] | no effect on ClC-1 splicing; also recorded: not different from untreated HSA^LR muscle |  |  |  |  |  |  |  |  |  |  |  |  |  | 
antisense 1: morpholino 5′-CCAGGCACGGTCTGCAACAGAGAAG-3′ targeting the 3′ splice site of ClC-1 exon 7a (all phosphorodiamidate morpholino (PMO)) |  | did not affect the formation of nuclear foci; also recorded: no effect on the formation of ribonuclear inclusions | significant reduction of exon 7a inclusion; also recorded: suppressed to wild type (WT) levels | higher level of exon 7a skipping | more effective than targeting the 5′ splice site alone | remained partially suppressed | partial exclusion of exon 7a | increases the fraction of splice products encoding functional ClC-1 channels | repressed the inclusion of exon 7a | reduced inclusion of exon 7a | Greater than 90% | throughout the TA muscle | limited to the needle track | accumulate preferentially in the nucleus | localizes preferentially to muscle nuclei
